Results as given in patent publication US10206907B2, “Compounds useful for the treatment of degenerative and inflammatory diseases” (GALAPAGOS NV, priority 2008, dated 2019).

Legend:
MMP13 in SW1353 cells = experiment: OSM/IL-1β signaling assay (MMP13 levels in SW1353 cells); assay type: cell-based; conditions: Homo sapiens; SW1353 cells, OSM and IL-1β triggered, MMP13 levels 48 hours after triggering; read-out: MMP13 EC50;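 further: secreted MMP13 captured by antibody, activated with APMA and its activity read by fluorescence, inhibition scaled between vehicle-treated triggered wells (0%) and untriggered wells (100%)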
[1] = target: Recombinant human JAK1 catalytic domain (Homo sapiens (Human), UniProt P23458); experiment: JAK1 inhibition assay; assay type: biochemical; conditions: semi-quantitative score
How it was run: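 Radiometric assay read by scintillation counting after phosphoric-acid washes. Percent inhibition calculated from cpm relative to vehicle and 10 μM staurosporine control. IC50 derived from compound dose-dilution series.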

[2] = Microsomal stability, rat liver microsomes; assay type: in vitro ADME; conditions: percentage of compound remaining after 60 minutes, 3 μM compound
How it was run: (§1)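 Compound was incubated with liver microsomes plus an NADP+/glucose-6-phosphate/G6PDH/MgCl2 regenerating system at 37°C for 1 h. Reactions were stopped 1:1 with MeOH or ACN and analysed by LCMS.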

[3] = system: JAK-STAT signalling in HeLa cells; experiment: JAK-STAT signalling assay (OSM-triggered pSTAT1(2)-luciferase reporter in HeLa cells); assay type: cell-based; conditions: Homo sapiens; HeLa cells, OSM-triggered pSTAT1(2)-luciferase reporter; read-out: STAT signalling EC50
How it was run: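 HeLa cells transiently transfected with pSTAT1(2)-luciferase reporter plus LacZ internal control, incubated overnight at 37 °C, 10% CO2, then OSM-stimulated with compound. Luciferase read by Steadylite luminescence and normalised to β-galactosidase (ONPG); percent inhibition from controls, EC50 from dose-response.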

[4] = target: Recombinant human JAK3 catalytic domain (Homo sapiens (Human), UniProt P52333); experiment: JAK3 inhibition assay; assay type: biochemical; conditions: semi-quantitative score
Experimental: Plates were washed 6 times with 300 μL per well of a 75 mM phosphoric acid solution and the bottom of the plates was sealed. 40 μL/well of Microscint-20 was added, the top of the plates was sealed and readout was performed using the Topcount (Perkin Elmer). Kinase activity was calculated by subtracting counts per minute (cpm) obtained in the presence of a positive control inhibitor (10 μM staurosporine) from cpm obtained in the presence of vehicle. The ability of a test compound to inhibit this activity was determined as: Percentage inhibition=((cpm determined for sample with test compound present−cpm determined for sample with positive control inhibitor) divided by (cpm determined in the presence of vehicle−cpm determined for sample with positive control inhibitor))*100%.
Dose dilution series were prepared for the compounds enabling the testing of dose-response effects in the JAK3 assay and the calculation of the IC50 for each compound.

[5] = target: Recombinant human JAK2 catalytic domain (Homo sapiens (Human), UniProt O60674); experiment: JAK2 inhibition assay; assay type: biochemical; conditions: semi-quantitative score
How it was run: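 Radiometric kinase reactions ran for 90 min at 30 °C and were stopped with phosphoric acid, then washed and counted by scintillation. Percent inhibition was set relative to vehicle and to 10 μM staurosporine background. IC50 was derived from dose-dilution series.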

[6] = Caco2 permeability (bi-directional); assay type: in vitro ADME, human; conditions: human, pH 7.4; for Papp A→B at 1 h, 10 µM: Caco-2, apical to basolateral, read-out: Papp (A2B); for efflux ratio at 1 h, 10 µM: Caco-2, ratio of PappB>A/PappA>B
How it was run: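 Bidirectional transport across Caco-2 monolayers was run for 1 h at 37 °C with shaking, with 50 μM Lucifer Yellow in the donor to check monolayer integrity (acceptance ≤100 nm/s). Apical and basal compound levels were measured by LC-MS/MS, and efflux ratio was taken as PappB>A/PappA>B.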

[7] = Microsomal stability, human liver microsomes; assay type: in vitro ADME; conditions: percentage of compound remaining after 60 minutes, 3 μM compound
How it was run: as §1

Sequence of Recombinant human JAK1 catalytic domain (P23458 850-1154): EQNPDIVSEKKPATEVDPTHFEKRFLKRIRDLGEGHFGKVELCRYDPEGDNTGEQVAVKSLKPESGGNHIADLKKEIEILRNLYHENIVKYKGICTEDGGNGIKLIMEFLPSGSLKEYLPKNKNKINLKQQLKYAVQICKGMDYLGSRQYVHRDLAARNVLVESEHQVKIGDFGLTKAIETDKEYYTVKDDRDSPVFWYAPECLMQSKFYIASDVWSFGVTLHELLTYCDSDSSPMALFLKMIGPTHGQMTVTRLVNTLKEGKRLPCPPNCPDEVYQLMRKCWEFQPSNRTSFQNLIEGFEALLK
Sequence of Recombinant human JAK2 catalytic domain (O60674 808-1132): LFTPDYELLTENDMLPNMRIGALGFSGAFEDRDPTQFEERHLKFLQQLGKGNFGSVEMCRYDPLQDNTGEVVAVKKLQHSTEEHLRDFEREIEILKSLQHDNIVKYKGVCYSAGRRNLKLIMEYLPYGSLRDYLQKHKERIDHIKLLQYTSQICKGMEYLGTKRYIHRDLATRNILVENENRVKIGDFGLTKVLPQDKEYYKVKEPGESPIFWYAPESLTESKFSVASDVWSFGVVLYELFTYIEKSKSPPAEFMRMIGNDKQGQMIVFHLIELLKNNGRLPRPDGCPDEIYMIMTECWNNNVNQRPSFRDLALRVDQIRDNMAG
Sequence of Recombinant human JAK3 catalytic domain (P52333 781-1124): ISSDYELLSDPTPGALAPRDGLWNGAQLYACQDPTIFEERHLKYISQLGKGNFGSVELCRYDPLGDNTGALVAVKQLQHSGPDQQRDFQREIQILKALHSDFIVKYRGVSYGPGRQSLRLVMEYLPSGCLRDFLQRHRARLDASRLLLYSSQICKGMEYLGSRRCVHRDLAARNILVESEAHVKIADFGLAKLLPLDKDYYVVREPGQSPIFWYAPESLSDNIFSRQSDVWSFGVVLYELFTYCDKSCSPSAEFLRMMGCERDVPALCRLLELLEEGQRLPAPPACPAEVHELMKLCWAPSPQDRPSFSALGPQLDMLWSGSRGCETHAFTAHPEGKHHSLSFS

O=C(NCc1cccc(F)c1)c1ccc(-c2cccc3nc(NC(=O)C4CC4)nn23)cc1 [Compound 29, 4-(2-(cyclopropanecarboxamido)-[1,2,4]triazolo[1,5-a]pyridin-5-yl)-N-(3-fluorobenzyl)benzamide]
EC50 (MMP13 in SW1353 cells): > 1000 nM | IC50 [1]: < 100 nM | Microsomal Stability Rat (%) [2]: ** (** 26-50) | EC50 [3]: 101 to 500 nM | IC50 [4]: > 1000 nM | IC50 [5]: 101 to 500 nM | Papp A→B at 1 h, 10 µM [6]: 7.78 ×10⁻⁶ cm/s | efflux ratio at 1 h, 10 µM [6]: 5.2 | Microsomal Stability Human (%) [7]: *** (*** 51-75)

O=C(Nc1nc2cccc(-c3ccc(NCc4ccccc4)cc3)n2n1)C1CC1 [Compound 72, N-(5-(4-(benzylamino)phenyl)-[1,2,4]triazolo[1,5-a]pyridin-2-yl)cyclopropanecarboxamide]
EC50 (MMP13 in SW1353 cells): 501 to 1000 nM | IC50 [1]: < 100 nM | Microsomal Stability Rat (%) [2]: * (* 0-25) | EC50 [3]: > 1000 nM | IC50 [4]: 501 to 1000 nM | IC50 [5]: < 100 nM | efflux ratio at 1 h, 10 µM [6]: 1.31 | Microsomal Stability Human (%) [7]: * (* 0-25)

O=C(Nc1nc2cccc(-c3ccc(C(=O)N4CCCN(Cc5ccccc5)CC4)cc3)n2n1)C1CC1 [Compound 75, N-(5-(4-(4-benzyl-1,4-diazepane-1-carbonyl)phenyl)-[1,2,4]triazolo[1,5-a]pyridin-2-yl)cyclopropanecarboxamide]
EC50 (MMP13 in SW1353 cells): 501 to 1000 nM | IC50 [1]: < 100 nM | Microsomal Stability Rat (%) [2]: * (* 0-25) | EC50 [3]: > 1000 nM | IC50 [4]: > 1000 nM | IC50 [5]: 101 to 500 nM | Papp A→B at 1 h, 10 µM [6]: 18.2 ×10⁻⁶ cm/s | efflux ratio at 1 h, 10 µM [6]: 2.5 | Microsomal Stability Human (%) [7]: * (* 0-25)

O=C(Nc1nc2cccc(-c3ccc(NS(=O)(=O)CCc4ccccc4)cc3)n2n1)C1CC1 [Compound 76, N-(5-(4-(2-phenylethylsulfonamido)phenyl)-[1,2,4]triazolo[1,5-a]pyridin-2-yl)cyclopropanecarboxamide]
EC50 (MMP13 in SW1353 cells): 1 to 500 nM | IC50 [1]: < 100 nM | Microsomal Stability Rat (%) [2]: * (* 0-25) | EC50 [3]: 501 to 1000 nM | IC50 [4]: 101 to 500 nM | IC50 [5]: < 100 nM | Papp A→B at 1 h, 10 µM [6]: 8.14 ×10⁻⁶ cm/s | efflux ratio at 1 h, 10 µM [6]: 5.09 | Microsomal Stability Human (%) [7]: * (* 0-25)

O=C(Nc1nc2cccc(-c3ccc(OCc4ccc(C(F)(F)F)nc4)cc3)n2n1)C1CC1 [Compound 78, N-(5-(4-((6-(trifluoromethyl)pyridin-3-yl)methoxy)phenyl)-[1,2,4]triazolo[1,5-a]pyridin-2-yl)cyclopropanecarboxamide]
EC50 (MMP13 in SW1353 cells): 501 to 1000 nM | IC50 [1]: < 100 nM | Microsomal Stability Rat (%) [2]: **** (**** 76-100) | EC50 [3]: > 1000 nM | IC50 [4]: 101 to 500 nM | IC50 [5]: < 100 nM | efflux ratio at 1 h, 10 µM [6]: 1.5 | Microsomal Stability Human (%) [7]: **** (**** 76-100)

O=C(NCCc1ccccc1)c1ccc(-c2cccc3nc(NC(=O)C4CC4)nn23)cc1 [Compound 87, 4-(2-(cyclopropanecarboxamido)-[1,2,4]triazolo[1,5-a]pyridin-5-yl)-N-phenethylbenzamide]
EC50 (MMP13 in SW1353 cells): 501 to 1000 nM | IC50 [1]: < 100 nM | Microsomal Stability Rat (%) [2]: * (* 0-25) | EC50 [3]: 101 to 500 nM | IC50 [4]: 101 to 500 nM | IC50 [5]: < 100 nM | Papp A→B at 1 h, 10 µM [6]: 20.9 ×10⁻⁶ cm/s | efflux ratio at 1 h, 10 µM [6]: 1.81 | Microsomal Stability Human (%) [7]: * (* 0-25)

CN(CCc1ccccc1)C(=O)c1ccc(-c2cccc3nc(NC(=O)C4CC4)nn23)cc1 [Compound 96, 4-(2-(cyclopropanecarboxamido)-[1,2,4]triazolo[1,5-a]pyridin-5-yl)-N-methyl-N-phenethylbenzamide]
EC50 (MMP13 in SW1353 cells): > 1000 nM | IC50 [1]: < 100 nM | Microsomal Stability Rat (%) [2]: * (* 0-25) | EC50 [3]: > 1000 nM | IC50 [4]: > 1000 nM | IC50 [5]: < 100 nM | Papp A→B at 1 h, 10 µM [6]: 34.6 ×10⁻⁶ cm/s | efflux ratio at 1 h, 10 µM [6]: 1 | Microsomal Stability Human (%) [7]: * (* 0-25)

O=C(NCCc1ccc(C(F)(F)F)cc1)c1ccc(-c2cccc3nc(NC(=O)C4CC4)nn23)cc1 [Compound 97, 4-(2-(cyclopropanecarboxamido)-[1,2,4]triazolo[1,5-a]pyridin-5-yl)-N-(4-(trifluoromethyl)phenethyl) benzamide]
EC50 (MMP13 in SW1353 cells): 501 to 1000 nM | IC50 [1]: < 100 nM | Microsomal Stability Rat (%) [2]: ** (** 26-50) | EC50 [3]: 101 to 500 nM | IC50 [4]: 101 to 500 nM | IC50 [5]: < 100 nM | Papp A→B at 1 h, 10 µM [6]: 23.8 ×10⁻⁶ cm/s | efflux ratio at 1 h, 10 µM [6]: 2.61 | Microsomal Stability Human (%) [7]: * (* 0-25)

O=C(Nc1nc2cccc(-c3ccc(OCc4ncon4)cc3)n2n1)C1CC1 [Compound 99, N-(5-(4-((1,2,4-oxadiazol-3-yl)methoxy)phenyl)-[1,2,4]triazolo[1,5-a]pyridin-2-yl)cyclopropanecarboxamide]
EC50 (MMP13 in SW1353 cells): 1 to 500 nM | IC50 [1]: < 100 nM | Microsomal Stability Rat (%) [2]: * (* 0-25) | EC50 [3]: 101 to 500 nM | IC50 [4]: 101 to 500 nM | IC50 [5]: < 100 nM | Papp A→B at 1 h, 10 µM [6]: 38.9 ×10⁻⁶ cm/s | efflux ratio at 1 h, 10 µM [6]: 0.81 | Microsomal Stability Human (%) [7]: ** (** 26-50)

O=C(NCCOc1ccccc1)c1ccc(-c2cccc3nc(NC(=O)C4CC4)nn23)c(F)c1 [Compound 100, 4-(2-(cyclopropanecarboxamido)-[1,2,4]triazolo[1,5-a]pyridin-5-yl)-3-fluoro-N-(2-phenoxyethyl)benzamide]
EC50 (MMP13 in SW1353 cells): > 1000 nM | IC50 [1]: < 100 nM | Microsomal Stability Rat (%) [2]: * (* 0-25) | EC50 [3]: > 1000 nM | IC50 [4]: > 1000 nM | IC50 [5]: < 100 nM | Papp A→B at 1 h, 10 µM [6]: 11.8 ×10⁻⁶ cm/s | efflux ratio at 1 h, 10 µM [6]: 3.23 | Microsomal Stability Human (%) [7]: * (* 0-25)

O=C(Nc1nc2cccc(-c3ccc(NCc4ccccc4)nc3)n2n1)C1CC1 [Compound 104, N-(5-(6-(benzylamino)pyridin-3-yl)-[1,2,4]triazolo[1,5-a]pyridin-2-yl)cyclopropanecarboxamide]
EC50 (MMP13 in SW1353 cells): > 1000 nM | IC50 [1]: < 100 nM | Microsomal Stability Rat (%) [2]: * (* 0-25) | EC50 [3]: > 1000 nM | IC50 [4]: > 1000 nM | IC50 [5]: 101 to 500 nM | Papp A→B at 1 h, 10 µM [6]: 28 ×10⁻⁶ cm/s | efflux ratio at 1 h, 10 µM [6]: 0.9 | Microsomal Stability Human (%) [7]: * (* 0-25)

O=C(Nc1nc2cccc(-c3ccc(CC(=O)N4CCC(C(F)(F)F)CC4)cc3)n2n1)C1CC1 [Compound 319, Cyclopropanecarboxylic acid (5-{4-[2-oxo-2-(4-trifluoromethyl-piperidin-1-yl)-ethyl]-phenyl}-[1,2,4]triazolo[1,5-a]pyridin-2 yl)-amide]
EC50 (MMP13 in SW1353 cells): > 1000 nM | IC50 [1]: < 100 nM | Microsomal Stability Rat (%) [2]: * (* 0-25) | EC50 [3]: 501 to 1000 nM | IC50 [4]: 101 to 500 nM | Papp A→B at 1 h, 10 µM [6]: 11.2 ×10⁻⁶ cm/s | Microsomal Stability Human (%) [7]: * (* 0-25)
